This is an account of results in US4220755A, “Fortimicin B derivatives and process for production thereof” (Abbott Laboratories, priority 1976, dated 1980).

Converted amounts (≈) assume the structure as drawn. Bounds are passed on as bounds.

The test system of one data set is Eschericihia coli 3100. Briefly: MIC, agar dilution method, pH 7.2. The format is cell-based, Escherichia coli. As to conditions: Escherichia coli; pH 7.2; E. coli 3100; read-out: Minimum inhibition concentration (MIC). The method, then: (§1) Measurement was carried out according to the agar dilution method, using a medium of pH 8.0, or the Japanese Antibiotic Medicament Standard, using a medium of pH 7.2 Units are in mcg/ml.

In data set [1] the test system is Escherichia coli R19 KY8348. The data set can be described thus: MIC, agar dilution method, pH 7.2. To be noted: R19KY8348, pH 7.2, E. coli R19 KY8348, 4**: gentamicin, producing acetyltransferase type I, read-out: Minimum inhibition concentration (MIC). The data set is classed as cell-based. The method, then:
as §1
(§2) 4: gentamicin, producing acetyltransferase type I.

The subject of data set [2] is Pseudomonas aeruginosa R4 KY8511. Briefly: MIC, agar dilution method, pH 7.2. As to conditions: R4KY8511, pH 7.2, P. aeruginosa R4 KY8511, 4**: gentamicin, producing acetyltransferase type I, read-out: Minimum inhibition concentration (MIC). The format is cell-based. As for the experimental part:
as §1, §2
For orientation: Agar dilution tests growth on a series of plates holding different concentrations.

The subject of data set [3] is Proteus vulgaris KY4277 ATCC6897. Briefly: MIC, agar dilution method, pH 8.0. The format is cell-based. To be noted: ATCC6897; pH 8.0; Proteus vulgaris KY4277; read-out: Minimum inhibition concentration (MIC), PV. As for the experimental part: as §1
For data set [4], the system named is Shigella sonnei KY4281 ATCC9290. The data set can be described thus: MIC, agar dilution method, pH 8.0. The format is cell-based. As to conditions: ATCC9290; pH 8.0; Shigella sonnei KY4281; read-out: Minimum inhibition concentration (MIC), SS. The method, then: as §1
The test system of data set [5] is Staphylococcus aureus KY4279 ATCC6538P. The data set can be described thus: MIC, agar dilution method, pH 8.0. The data set is classed as cell-based. To be noted: Staphylococcus aureus, pH 8, read-out: Minimum inhibition concentration (MIC), SA. The method, then: as §1
S.A.: Staphylococcus aureus KY4279 ATCC6538P

In data set [6] the test system is Pseudomonas aeruginosa R9 KY8516. The data set can be described thus: MIC, agar dilution method, pH 7.2. The data set is classed as cell-based. As to conditions: R9KY8516, pH 7.2, P. aeruginosa R9 KY8516, 3**: kanamycin, producing acetyltransferase, read-out: Minimum inhibition concentration (MIC). As for the experimental part: as §1
(§3) 3: kanamycin, producing acetyltransferase.

For another data set, the system named is Serratia marcescens 1065. The data set can be described thus: MIC, agar dilution method, pH 7.2. The data set is classed as cell-based. As to conditions: pH 7.2; Serratia marcescens 1065; 3**: kanamycin, producing acetyltransferase; read-out: Minimum inhibition concentration (MIC). As for the experimental part:
as §1, §3

In data set [7] the test system is Escherichia coli R17 Z343. Briefly: MIC, agar dilution method, pH 7.2. The format is cell-based. To be noted: R17Z343, pH 7.2, E. coli R17 Z343, 3**: kanamycin, producing acetyltransferase, read-out: Minimum inhibition concentration (MIC). As for the experimental part: as §1, §3
The next data set concerns Providencia sp 164. The data set can be described thus: MIC, agar dilution method, pH 7.2. The format is cell-based. To be noted: pH 7.2; Providencia sp 164; 7**: gentamicin, producing acetyltransferase type II; read-out: Minimum inhibition concentration (MIC). The method, then:
as §1
7: gentamicin, producing acetyltransferase type II.

Data set [8] deals with Pseudomonas aeruginosa R5 KY8512. The data set can be described thus: MIC, agar dilution method, pH 7.2. The data set is classed as cell-based. As to conditions: R5KY8512, pH 7.2, P. aeruginosa R5 KY8512, 6**: neomycin, producing phosphotransferase type I and type II, read-out: Minimum inhibition concentration (MIC). As for the experimental part: as §1
6: neomycin, producing phosphotransferase type I and type II.

Data set [9] has as its system Klebsiella pneumoniae 3020 Y-60. The data set can be described thus: MIC, agar dilution method, pH 7.2. The data set is classed as cell-based. As to conditions: 3020Y60; pH 7.2; Klebsiella pneumoniae 3020 Y-60; 1**: gentamicin, producing adenylsynthetase; read-out: Minimum inhibition concentration (MIC). As for the experimental part:
as §1
(§4) **1: gentamicin, producing adenylsynthetase.

Data set [10] has as its system Escherichia coli 57R/W677. Briefly: MIC, agar dilution method, pH 7.2. The format is cell-based. As to conditions: 57R/W677, pH 7.2, read-out: Minimum inhibition concentration (MIC). As for the experimental part: as §1, §4
For data set [11], the system named is Escherichia coli R12 Z-338. The data set can be described thus: MIC, agar dilution method, pH 7.2. To be noted: R12Z338, pH 7.2, E. coli R12 Z-338, 1**: gentamicin, producing adenylsynthetase, read-out: Minimum inhibition concentration (MIC). The format is cell-based. The method, then:
as §1, §4

The test system of the next data set is Escherichia coli 76-2. Briefly: MIC, agar dilution method, pH 7.2. To be noted: Escherichia coli, 762; pH 7.2; E. coli 76-2; 1**: gentamicin, producing adenylsynthetase; read-out: Minimum inhibition concentration (MIC). The format is cell-based. As for the experimental part: as §1, §4
For data set [12], the system named is Eschericia coli KY4271 ATCC26. Briefly: MIC, agar dilution method, pH 8.0. The data set is classed as cell-based. To be noted: Escherichia coli, ATCC26; pH 8.0; E. coli KY4271; read-out: Minimum inhibition concentration (MIC), EC. The method, then: as §1
E.C.: Eschericia coli KY4271 ATCC26

Data set [13] concerns Staphylococcus a ureus 226. The data set can be described thus: MIC, agar dilution method, pH 7.2. To be noted: pH 7.2; Staphylococcus aureus 226; read-out: Minimum inhibition concentration (MIC). The data set is classed as cell-based, Staphylococcus aureus. As for the experimental part: as §1
The next data set has as its system Bacillus subtilis KY4273. The data set can be described thus: MIC, agar dilution method, pH 8.0. The data set is classed as cell-based. To be noted: Bacillus subtilis, KY4273, pH 8, read-out: Minimum inhibition concentration (MIC), BS. The method, then:
as §1
B.S.: Bacillus subtilis KY4273

The test system of a further data set is various microorganisms. The data set can be described thus: Antibacterial activity (general statements). The data set is classed as cell-based. To be noted: qualitative statement. The method, then: as §1
Data set [14] deals with Klebsiella pneumoniae KY4274. The data set can be described thus: MIC, agar dilution method, pH 7.2. The format is cell-based. As to conditions: pH 7.2; Klebsiella pneumoniae KY4274; read-out: Minimum inhibition concentration (MIC). As for the experimental part: as §1
For data set [15], the system named is Pseudomonas aeruginosa UCLA 4184. Briefly: MIC, agar dilution method, pH 7.2. The data set is classed as cell-based. To be noted: UCLA4184; pH 7.2; Pseudomonas aeruginosa UCLA 4184; read-out: Minimum inhibition concentration (MIC). As for the experimental part:
as §1

In another data set the test system is Shigella sonnei ATCC9290. The data set can be described thus: MIC, agar dilution method, pH 7.2. The format is cell-based. As to conditions: read-out: Minimum inhibition concentration (MIC). The method, then:
as §1

Data set [16] deals with Staphylococcus aureus Smith (A). The data set can be described thus: MIC, agar dilution method, pH 7.2. The format is cell-based. As to conditions: pH 7.2; Staphylococcus aureus Smith (A); read-out: Minimum inhibition concentration (MIC). As for the experimental part: as §1
In a further data set the test system is Proteus vulgaris JJ. The data set can be described thus: MIC, agar dilution method, pH 7.2. The format is cell-based. To be noted: pH 7.2; Proteus vulgaris JJ; read-out: Minimum inhibition concentration (MIC). As for the experimental part: as §1
Data set [17] relates to Salmonella enteritidis G-14. The data set can be described thus: MIC, agar dilution method, pH 7.2. To be noted: Salmonella enterica; pH 7.2; Salmonella enteritidis G-14; read-out: Minimum inhibition concentration (MIC). The data set is classed as cell-based. The method, then: as §1
In data set [18] the test system is Pseudomonas aeruginosa BMH# 1. Briefly: MIC, agar dilution method, pH 7.2. The data set is classed as cell-based. As to conditions: pH 7.2; Pseudomonas aeruginosa BMH# 1; read-out: Minimum inhibition concentration (MIC). As for the experimental part:
as §1

The test system of the next data set is Escherichia coli NIHTC-2. Briefly: MIC, agar dilution method, pH 7.2. The format is cell-based. As to conditions: NIHTC2; pH 7.2; Escherichia coli NIHTC-2; read-out: Minimum inhibition concentration (MIC). The method, then:
as §1

Data set [19] relates to Staphylococcus aureus 209-P. The data set can be described thus: MIC, agar dilution method, pH 7.2. The data set is classed as cell-based. To be noted: pH 7.2; Staphylococcus aureus 209-P; read-out: Minimum inhibition concentration (MIC). As for the experimental part:
as §1

Data set [20] concerns Eschericihia coli GN2411-5. Briefly: MIC, agar dilution method, pH 7.2. The data set is classed as cell-based. As to conditions: Escherichia coli; pH 7.2; E. coli GN2411-5; read-out: Minimum inhibition concentration (MIC). The method, then:
as §1

In data set [21] the test system is Klebsiella pneumoniae KY4275 ATCC10031. Briefly: MIC, agar dilution method, pH 8.0. The data set is classed as cell-based. As to conditions: ATCC10031; pH 8.0; Klebsiella pneumoniae KY4275; read-out: Minimum inhibition concentration (MIC), KP. As for the experimental part:
as §1
K.P.: Klebsiella pneumoniae KY4275 ATCC10031.

In data set [22] the test system is Salmonella typhosa KY4278 ATCC9992. Briefly: MIC, agar dilution method, pH 8.0. The format is cell-based. As to conditions: Salmonella enterica, pH 8, read-out: Minimum inhibition concentration (MIC), ST. The method, then:
as §1
S.T.: Salmonella typhosa KY4278 ATCC9992

Data set [23] deals with Escherichia coli R18 KY8321. The data set can be described thus: MIC, agar dilution method, pH 7.2. The format is cell-based. As to conditions: R18KY8321, E. coli R18 KY8321, 2**: gentamicin, producing adenylsynthetase and neomycin phosphotransferase type II, read-out: Minimum inhibition concentration (MIC). As for the experimental part:
as §1
2: gentamicin, producing adenylsynthetase and neomycin phosphotransferase

Data set [24] relates to Escherichia coli R20 KY8349. Briefly: MIC, agar dilution method, pH 7.2. To be noted: R20KY8349, pH 7.2, E. coli R20 KY8349, 5**: neomycin, producing phosphotransferase type I, read-out: Minimum inhibition concentration (MIC). The data set is classed as cell-based. The method, then:
as §1
5: neomycin, producing phosphotransferase type I.

A short description of data set [25]: Stability in alkaline aqueous conditions. The data set is classed as physicochemical. As for the experimental part:
The stability of 4-N-acylfortimicin B derivatives in aqueous alkaline conditions is poor. […] Therefore, purification of these compounds under basic conditions (for example, column chromatography with Amberlite CG-50, eluting with aqueous ammonia) is not practical.
In contrast with the instability of 4-N-acylfortimicin B derivatives, 4-N-alkylfortimicin B derivatives are so stable that no decomposition occurs even in aqueous barium hydroxide solution at reflux temperature for 18 hours. Therefore, in the case of 4-N-alkylfortimicin B, any substituents can be introduced at 4-N-position of fortimicin B, even though such substituents can not be introduced as the acyl type to such position due to the aforementioned instability.

Consider `CN[C@H]1[C@@H](O)[C@H](O[C@H]2O[C@H]([C@H](C)N)CC[C@H]2N)[C@@H](N)[C@H](O)[C@@H]1OC` [Compound 1, fortimicin B], for which the MIC in the data set on Eschericihia coli 3100 is 100 µg/mL (≈ 287 µM); in [1] it was above 100 µg/mL; in [2], above 100 µg/mL; in data set [3], 25 µg/mL (≈ 71.7 µM); in data set [4] it was 50 µg/mL (≈ 143 µM); in data set [5], 12.5 µg/mL (≈ 35.9 µM). In addition, the MIC (in data set [6]; with Serratia marcescens 1065; in data set [7]; in the data set with Providencia sp 164; in [8]; in [9]) was above 100 µg/mL throughout. Also, the MIC is above 100 µg/mL in [10]; above 100 µg/mL in data set [11]; above 100 µg/mL in the data set on Escherichia coli 76-2; 25 µg/mL (≈ 71.7 µM) in [12]; 100 µg/mL (≈ 287 µM) in [13]; 12.5 µg/mL (≈ 35.9 µM) with Bacillus subtilis KY4273. The MIC is 100 µg/mL (≈ 287 µM) in data set [14]; above 100 µg/mL in data set [15]; above 100 µg/mL with Shigella sonnei ATCC9290; 100 µg/mL (≈ 287 µM) in [16]; above 100 µg/mL with Proteus vulgaris JJ; 100 µg/mL (≈ 287 µM) in data set [17]. Further, the MIC is above 100 µg/mL in [18]; above 100 µg/mL with Escherichia coli NIHTC-2; above 100 µg/mL in data set [19]; above 100 µg/mL in data set [20]; 50 µg/mL (≈ 143 µM) in data set [21]; 12.5 µg/mL (≈ 35.9 µM) in data set [22]. Besides, the MIC in data set [23] and in data set [24] was above 100 µg/mL throughout. The Antibacterial activity result in the data set on various microorganisms is “not as good as the other factors”.
Regarding `CO[C@H]1[C@@H](O)[C@H](N)[C@@H](O[C@H]2O[C@H]([C@H](C)N)CC[C@H]2N)[C@H](O)[C@@H]1N(C)C(=O)CCCCN` [Compound 11, 4-N-(δ-amino-n-valeryl)fortimicin B], the “Stability in alkali condition (MIC medium)” value in data set [25] (pH 8.0) is given as “unstable”. Further, in data set [25] (pH 10, room temperature, within one hour), the “Stability in aqueous solution” value was “almost completely decomposed”.
